{"source": "paper PMC9026280", "about": "“Reverse Electron Transfer by Respiratory Complex I Catalyzed in a Modular Proteoliposome System” (Journal of the American Chemical Society, 2022)", "type_in_all_cases": "biochemical", "key": {"[1]": {"target": "T1, complex I from mouse heart (Mus musculus) (Mus musculus, UniProt P03888+Q91WD5+Q91YT0+Q9DC70)", "T1 construct": "gene Ndufv1; native complex purified from mouse heart, whole multi-subunit enzyme, reconstituted in proteoliposomes with E. coli F1FO ATP synthase", "assay": "NADH:O2 oxidoreduction (FET) in CI proteoliposomes with AOX, spectrophotometric", "details": "200 μM NADH, membrane Q10, pH 7.5, 32 °C"}, "[2]": {"target": "T2, Complex I from Y. lipolytica (Yarrowia lipolytica, UniProt Q9B6E8+Q9UUT7+Q9UUU1+Q9UUU2)", "T2 construct": "gene nubm; complex purified from Y. lipolytica, whole multi-subunit enzyme, reconstituted in proteoliposomes with E. coli F1FO ATP synthase", "assay": "NADH:O2 oxidoreduction (FET) in CI proteoliposomes with AOX, spectrophotometric", "details": "200 μM NADH"}, "[3]": {"target": "T1, complex I from mouse heart (Mus musculus)", "assay": "NAD+ reduction by RET in CI-F1FO proteoliposomes with GlpD, spectrophotometric", "details": "Δp-linked RET; 1 mM NAD+, ATP, rac-G3P, β-CD, pH 7.5, 32 °C"}, "P. pastoris complex I [4]": {"target": "T3, P. pastoris complex I (Komagataella pastoris, UniProt E1UWA8+E1UWB5+E1UWC2)", "T3 construct": "gene nucm; native complex purified from P. pastoris, whole multi-subunit enzyme, reconstituted in proteoliposomes with E. coli F1FO ATP synthase; with NADH dehydrogenase [ubiquinone] flavoprotein 1, mitochondrial (51 kDa subunit)", "assay": "NAD+ reduction by RET in CI-F1FO proteoliposomes with GlpD, spectrophotometric", "details": "membrane concentration, Δp-linked, ATP, rac-G3P, β-CD, preheated 37 °C 15 min, assay pH 7.5, 32 °C"}, "P. pastoris complex I [5]": {"target": "T3, P. pastoris complex I", "assay": "NADH:O2 oxidoreduction (FET) in CI proteoliposomes with AOX, spectrophotometric", "details": "membrane Q10 concentration; 200 μM NADH, pH 7.5, 32 °C"}, "[6]": {"target": "T4, complex I from B. taurus (bovine complex I) (Bos taurus, UniProt P03887+P17694+P25708+P42026)", "T4 construct": "gene NDUFS2; AOX or GlpD added; with NADH dehydrogenase [ubiquinone] flavoprotein 2, mitochondrial; NADH-ubiquinone oxidoreductase 75 kDa subunit, mitochondrial; NADH dehydrogenase [ubiquinone] iron-sulfur protein 3, mitochondrial; NADH dehydrogenase [ubiquinone] iron-sulfur protein 8, mitochondrial; NADH-ubiquinone oxidoreductase chain 2; NADH-ubiquinone oxidoreductase chain 3; NADH-ubiquinone oxidoreductase chain 4; NADH-ubiquinone oxidoreductase chain 4L; NADH-ubiquinone oxidoreductase chain 5; NADH-ubiquinone oxidoreductase chain 6", "assay": "NADH:O2 oxidoreduction (FET) in CI proteoliposomes with AOX, spectrophotometric"}}, "data": [{"smiles": "NC(=O)C1=CN([C@@H]2O[C@H](COP(=O)(O)OP(=O)(O)OC[C@H]3O[C@@H](n4cnc5c(N)ncnc54)[C@H](O)[C@@H]3O)[C@@H](O)[C@H]2O)C=CC1", "note": "[NADH]", "values": [{"measurement": "NADH:O2 oxidoreduction (FET) in CI proteoliposomes with AOX, spectrophotometric", "setting": "[1]", "value": "Representative FET activities for proteoliposomes containing complex I from B. taurus (Bt), M. musculus (Mm)"}, {"measurement": "NADH:O2 oxidoreduction (FET) in CI proteoliposomes with AOX, spectrophotometric", "setting": "[2]; membrane Q10, pH 7.5, 32 °C", "value": "Complex I from Y. lipolytica consistently showed remarkably high rates of NADH oxidation in proteoliposomes"}]}, {"smiles": "NC(=O)c1ccc[n+]([C@@H]2O[C@H](COP(=O)(O)OP(=O)(O)OC[C@H]3O[C@@H](n4cnc5c(N)ncnc54)[C@H](O)[C@@H]3O)[C@@H](O)[C@H]2O)c1", "note": "[NAD^+]", "values": [{"measurement": "NAD+ reduction by RET in CI-F1FO proteoliposomes with GlpD, spectrophotometric", "setting": "[3]", "value": "by Δp-linked NAD^+ reduction (Figure 6B), that mouse complex I is capable of RET"}]}, {"smiles": "COc1c(O)c(C)c(C/C=C(\\C)CC/C=C(\\C)CC/C=C(\\C)CC/C=C(\\C)CC/C=C(\\C)CC/C=C(\\C)CC/C=C(\\C)CC/C=C(\\C)CC/C=C(\\C)CCC=C(C)C)c(O)c1OC", "note": "[Q10H2]", "values": [{"measurement": "KM (Q10H2)", "setting": "P. pastoris complex I [4]", "value": "the KM for Q10H2 was again significantly higher than for Q10"}]}, {"smiles": "COC1=C(OC)C(=O)C(C/C=C(\\C)CC/C=C(\\C)CC/C=C(\\C)CC/C=C(\\C)CC/C=C(\\C)CC/C=C(\\C)CC/C=C(\\C)CC/C=C(\\C)CC/C=C(\\C)CCC=C(C)C)=C(C)C1=O", "note": "[Q10]", "values": [{"measurement": "KM (Q10)", "setting": "P. pastoris complex I [5]", "value": "The KM values for both Q10 and Q10H2 were both lower for P. pastoris"}, {"measurement": "NADH:O2 oxidoreduction (FET) in CI proteoliposomes with AOX, spectrophotometric", "setting": "[2]; membrane Q10 as acceptor, pH 7.5, 32 °C", "value": "Complex I from Y. lipolytica consistently showed remarkably high rates of NADH oxidation in proteoliposomes"}]}, {"smiles": "C/C=C(\\C)[C@H](O)[C@H](C)/C=C(C)/C=C/C/C(C)=C/Cc1nc(OC)c(OC)c(O)c1C", "note": "[piericidin A]", "values": [{"measurement": "IC50", "setting": "[6]", "value": "7.8 ± 0.1", "unit": "nM"}]}]}
